The results in this text go back to paper PMC12592502, “Unraveling the mechanisms behind the enhanced efficacy of β-lactam-based sideromycins” (Communications Biology, 2025).

Common to all, as to experiment: Membrane PBP binding assay, competition with Bocillin FL
In one assay the target is PBP5 (Pseudomonas aeruginosa, UniProt G3XD74). Conditions: P. aeruginosa ATCC 27853 membranes. The method, then: (§1) Membrane extracts containing PBPs were obtained as described above. Briefly, all species were grown in 1 L of TSB until the OD600 reached 0.9. The washed pellet was incubated with lysozyme (400 μg/mL), DNase (10 μg/mL) RNase(10 μg/mL) and anti-protease cocktail (200 mg/20 mL). Lysis was done with a French press (20,000 psi) and membrane protein were pelleted by ultracentrifugation steps (100,000 × g). The pellet was suspended in a minimal volume (300–500 μL) of KP 0.05 M buffer at pH 7. The protein concentration in the membrane preparations was determined with the Micro BCA TM Protein Assay Kit (Thermo Fisher Scientific, Rockford, IL) using bovine serum albumin as a standard.
Chain of PBP5 (G3XD74 entry or part of it): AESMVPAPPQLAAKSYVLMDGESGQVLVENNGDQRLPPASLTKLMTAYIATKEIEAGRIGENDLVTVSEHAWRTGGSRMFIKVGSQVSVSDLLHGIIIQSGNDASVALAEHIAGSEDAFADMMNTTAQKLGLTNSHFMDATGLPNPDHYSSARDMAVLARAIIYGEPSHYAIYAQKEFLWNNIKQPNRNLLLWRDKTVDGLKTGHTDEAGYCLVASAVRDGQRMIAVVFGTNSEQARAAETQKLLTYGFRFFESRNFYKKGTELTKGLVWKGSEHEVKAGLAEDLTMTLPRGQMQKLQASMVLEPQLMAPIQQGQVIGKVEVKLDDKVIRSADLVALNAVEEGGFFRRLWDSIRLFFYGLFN
(§2) The PBP binding assay was done as described previously[36],[56],[57]. For each antibiotic concentration tested, a quantity of 25 to 40 μg of membrane preparation was used as the source of PBPs, depending on the species. For the purified PaPBP3, 150 ng was used in the assay. First, increasing concentrations of the test antibiotic was added to the membrane or purified PaPBP3 preparations and incubated for 10 min at 30 °C. The reporter molecule Bocillin FL was then added at 12.5 μM for the membrane PBPs preparations and at 500 nM for the pure PaPBP3 samples for an additional 20 min at 30 °C. All reactions were stopped with the addition of the Laemmli-loading buffer (Bio-Rad) containing fresh β-mercaptoethanol (Sigma). All reactions were then heated at 100°C for 3 min before migration on SDS-polyacrylamide discontinuous gel system (7.5% stacking and 10% separating). Control samples without Bocillin FL were also included to highlight autofluorescent proteins that are not PBPs.
(§3) To be able to visualize labeled PBPs after electrophoresis, gels were rinsed in water and fixed in a solution of 50% methanol and 7% acetic acid for 30 min. The fluorescent images of gels were obtained with the Typhoon FLA 9500 instrument (GE-Healthcare Bio-Sciences Inc., Baie-d’Urfé, QC, CA) using a 473 nm excitation wavelength. To obtain quantifiable data, the software Quantity One 1D analysis was used (version 4.6.6; Bio-Rad Laboratories, Richmond, CA). The volume (intensity × constant area) of each PBP was measured. […] All IC50 data were obtained from at least two independent PBP binding assays using two different sets of compound concentrations using a linear regression. The PBP profiles were confirmed, and the PBP numbering were determined using published data and individual molecular weights. […] For example, amdinocillin (Sigma) was used for PBP2 identification. […] The IC50 for PBP 2 of P. aeruginosa was measured by including the SDS-PAGE comigrating autofluorescent protein in the background, as done previously.

The target of assay [1] is PBP1b (Pseudomonas aeruginosa, UniProt G3XD31). The following applies: P. aeruginosa ATCC 27853 membranes. The method, then:
as §1, §2, §3

Assay [2] concerns the target PBP1b (Acinetobacter baumannii, UniProt A0ABX6CHI7). The following applies: A. baumannii ATCC 19606 membranes. Here is the method:
as §1, §2, §3

Assay [3] addresses PBP3 (Acinetobacter baumannii, UniProt A0ABX6CK25). The following applies: A. baumannii ATCC 19606 membranes. The method, then: as §1, §2, §3
The target in another assay is PBP1a (Acinetobacter baumannii, UniProt A0ABX6CK30). The following applies: A. baumannii ATCC 19606 membranes. Here is the method: as §1, §2, §3
Chain of PBP1a (A0ABX6CK30 entry or part of it): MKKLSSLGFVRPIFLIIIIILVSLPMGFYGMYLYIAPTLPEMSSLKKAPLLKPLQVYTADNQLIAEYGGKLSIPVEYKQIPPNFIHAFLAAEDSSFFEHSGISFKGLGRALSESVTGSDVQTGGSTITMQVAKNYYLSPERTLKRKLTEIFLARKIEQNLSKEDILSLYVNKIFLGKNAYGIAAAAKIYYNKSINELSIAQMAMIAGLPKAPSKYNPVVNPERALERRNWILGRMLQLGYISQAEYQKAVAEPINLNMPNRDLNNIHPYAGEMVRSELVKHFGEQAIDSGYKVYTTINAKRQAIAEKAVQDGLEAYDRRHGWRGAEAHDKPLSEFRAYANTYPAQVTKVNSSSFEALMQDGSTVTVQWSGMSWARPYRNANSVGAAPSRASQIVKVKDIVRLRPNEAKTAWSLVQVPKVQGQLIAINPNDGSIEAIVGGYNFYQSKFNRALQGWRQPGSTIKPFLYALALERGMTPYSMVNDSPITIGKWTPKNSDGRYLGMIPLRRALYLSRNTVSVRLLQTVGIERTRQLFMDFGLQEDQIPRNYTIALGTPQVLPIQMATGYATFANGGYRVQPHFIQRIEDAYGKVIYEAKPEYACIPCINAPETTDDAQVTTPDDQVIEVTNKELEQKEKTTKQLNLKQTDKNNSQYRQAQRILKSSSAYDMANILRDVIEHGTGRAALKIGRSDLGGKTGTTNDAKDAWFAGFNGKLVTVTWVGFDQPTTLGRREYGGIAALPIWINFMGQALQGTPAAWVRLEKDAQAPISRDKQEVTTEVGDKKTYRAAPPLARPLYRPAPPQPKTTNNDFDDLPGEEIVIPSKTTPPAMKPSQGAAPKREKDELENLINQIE
In assay [4] the target is PBP3 (Klebsiella pneumoniae, UniProt A0A0H3GN85). The following applies: K. pneumoniae ATCC 13883 membranes. The method, then: as §1, §2, §3
Chain of PBP3 (Klebsiella pneumoniae, UniProt A0A0H3GN85) (A0A0H3GN85 entry or part of it): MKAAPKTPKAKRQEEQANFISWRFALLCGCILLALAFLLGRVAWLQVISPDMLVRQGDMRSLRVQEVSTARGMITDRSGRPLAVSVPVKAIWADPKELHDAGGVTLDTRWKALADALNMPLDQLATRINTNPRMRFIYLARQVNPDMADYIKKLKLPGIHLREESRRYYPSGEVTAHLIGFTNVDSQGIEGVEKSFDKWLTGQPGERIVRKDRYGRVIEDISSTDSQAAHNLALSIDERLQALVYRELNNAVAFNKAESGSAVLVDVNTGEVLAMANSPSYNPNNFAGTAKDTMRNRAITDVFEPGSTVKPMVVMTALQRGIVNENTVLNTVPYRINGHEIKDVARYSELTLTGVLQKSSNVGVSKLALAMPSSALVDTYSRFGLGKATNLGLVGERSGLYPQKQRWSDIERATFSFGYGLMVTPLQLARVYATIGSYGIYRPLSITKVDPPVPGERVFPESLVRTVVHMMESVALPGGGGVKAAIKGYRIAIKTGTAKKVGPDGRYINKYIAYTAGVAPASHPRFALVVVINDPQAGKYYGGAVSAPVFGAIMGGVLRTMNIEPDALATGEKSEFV
The target in the next assay is PBP4 (Klebsiella pneumoniae, UniProt A0ACD7U7I2). Conditions: K. pneumoniae ATCC 13883 membranes. Here is the method:
as §1, §2, §3

Chain of PBP1b (Pseudomonas aeruginosa, UniProt G3XD31) (G3XD31 entry or part of it): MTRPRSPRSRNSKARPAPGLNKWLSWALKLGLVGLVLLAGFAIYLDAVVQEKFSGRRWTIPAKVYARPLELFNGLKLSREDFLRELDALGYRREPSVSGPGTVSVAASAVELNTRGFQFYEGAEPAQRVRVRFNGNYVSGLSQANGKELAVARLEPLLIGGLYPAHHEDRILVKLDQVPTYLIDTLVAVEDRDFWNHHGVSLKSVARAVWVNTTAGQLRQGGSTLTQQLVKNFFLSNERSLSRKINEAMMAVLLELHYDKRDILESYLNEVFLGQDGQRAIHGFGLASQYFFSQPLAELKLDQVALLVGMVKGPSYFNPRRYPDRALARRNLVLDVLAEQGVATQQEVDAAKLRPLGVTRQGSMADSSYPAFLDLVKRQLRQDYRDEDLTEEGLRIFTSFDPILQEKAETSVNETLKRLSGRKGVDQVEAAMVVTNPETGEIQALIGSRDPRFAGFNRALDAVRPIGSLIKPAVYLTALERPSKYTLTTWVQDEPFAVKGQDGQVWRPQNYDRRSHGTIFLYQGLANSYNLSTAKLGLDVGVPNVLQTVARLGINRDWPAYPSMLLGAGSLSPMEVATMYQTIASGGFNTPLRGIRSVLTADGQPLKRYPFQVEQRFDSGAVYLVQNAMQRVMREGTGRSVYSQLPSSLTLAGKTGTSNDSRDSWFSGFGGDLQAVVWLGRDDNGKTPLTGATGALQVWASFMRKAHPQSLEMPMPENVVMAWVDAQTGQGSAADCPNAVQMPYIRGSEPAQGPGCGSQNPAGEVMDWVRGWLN
Chain of PBP3 (Acinetobacter baumannii, UniProt A0ABX6CK25) (A0ABX6CK25 1-610): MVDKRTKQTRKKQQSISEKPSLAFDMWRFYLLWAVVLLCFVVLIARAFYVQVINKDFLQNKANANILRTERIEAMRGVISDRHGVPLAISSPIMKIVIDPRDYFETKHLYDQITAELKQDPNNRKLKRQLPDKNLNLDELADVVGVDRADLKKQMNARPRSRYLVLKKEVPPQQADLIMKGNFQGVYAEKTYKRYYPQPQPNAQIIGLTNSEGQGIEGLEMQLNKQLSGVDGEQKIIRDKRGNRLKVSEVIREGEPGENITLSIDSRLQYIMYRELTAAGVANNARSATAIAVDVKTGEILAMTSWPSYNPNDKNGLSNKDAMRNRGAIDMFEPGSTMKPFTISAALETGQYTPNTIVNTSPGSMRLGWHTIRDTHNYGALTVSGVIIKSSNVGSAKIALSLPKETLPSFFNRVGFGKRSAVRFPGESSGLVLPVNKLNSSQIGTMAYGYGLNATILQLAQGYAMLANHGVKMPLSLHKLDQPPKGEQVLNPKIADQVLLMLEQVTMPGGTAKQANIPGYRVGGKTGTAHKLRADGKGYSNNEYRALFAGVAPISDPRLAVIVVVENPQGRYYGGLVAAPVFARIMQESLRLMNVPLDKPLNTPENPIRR

As usually defined, the IC50 is the concentration at which inhibition is half-maximal. A high value points to weaker potency in that assay. `N[C@@H](C(=O)N[C@@H]1C(=O)N2C(C(=O)O)=C(Cl)CC[C@H]12)c1ccccc1` [LOR, loracarbef, reference compound]: the IC50 at PBP5 was more than 50 µM; on PBP1b [1], 1.8 ± 0.5 µM; at PBP1b [2] it was more than 50 µM; at PBP3 [3] it was 7.8 ± 0.8 µM; at PBP1a, more than 50 µM; at PBP3 [4], 4.1 ± 2.4 µM. At PBP4, this compound displayed an IC50 of 1.03 ± 0.72 µM.
